Reference: the NIST ThermoML archive (doi:10.1016/j.jct.2014.07.018)
Numbers after ± are expanded uncertainties.

Test: molar heat capacity at constant pressure
Details: 101.33 kPa, Vacuum adiabatic calorimetry

CCCCn1cc[n+](C)c1.[I-] [1-butyl-3-methylimidazolium iodide]
molar heat capacity at constant pressure [J/K/mol]
Details	Crystal	Glass
4.858 K	0.768 ± 0.023	–
5 K	0.845 ± 0.031	1.57 ± 0.04
5.042 K	–	1.601 ± 0.041
5.112 K	0.909 ± 0.026	–
5.32 K	–	1.862 ± 0.046
5.371 K	1.07 ± 0.029	–
5.604 K	–	2.149 ± 0.052
5.638 K	1.249 ± 0.033	–
5.895 K	–	2.463 ± 0.059
5.91 K	1.452 ± 0.037	–
6.217 K	1.701 ± 0.042	–
6.222 K	–	2.842 ± 0.066
6.56 K	2.006 ± 0.048	–
6.586 K	–	3.292 ± 0.076
6.91 K	2.343 ± 0.055	–
6.955 K	–	3.776 ± 0.085
7.265 K	2.714 ± 0.063	–
7.328 K	–	4.295 ± 0.096
7.496 K	–	4.532 ± 0.1
7.625 K	3.114 ± 0.071	–
7.705 K	–	4.838 ± 0.11
7.884 K	–	5.11 ± 0.11
7.99 K	3.553 ± 0.08	–
8.267 K	–	5.703 ± 0.12
8.357 K	4.021 ± 0.09	–
8.654 K	–	6.323 ± 0.14
8.728 K	4.513 ± 0.1	–
9.042 K	–	6.967 ± 0.15
9.104 K	5.04 ± 0.11	–
9.433 K	–	7.63 ± 0.16
9.483 K	5.597 ± 0.12	–
9.825 K	–	8.316 ± 0.18
9.868 K	6.177 ± 0.13	–
10 K	6.39 ± 0.1	8.62 ± 0.15
10.33 K	–	9.205 ± 0.11
10.36 K	6.957 ± 0.089	–
10.94 K	–	10.33 ± 0.13
10.95 K	7.92 ± 0.099	–
11.56 K	8.937 ± 0.11	11.49 ± 0.14
12.16 K	9.99 ± 0.12	–
12.18 K	–	12.66 ± 0.15
12.77 K	11.08 ± 0.13	–
12.8 K	–	13.88 ± 0.16
13.38 K	12.19 ± 0.14	–
13.42 K	–	15.11 ± 0.18
14 K	13.34 ± 0.16	–
14.05 K	–	16.37 ± 0.19
14.63 K	14.54 ± 0.17	–
14.69 K	–	17.68 ± 0.2
15 K	15.25 ± 0.17	18.31 ± 0.2
15.25 K	15.73 ± 0.18	–
15.47 K	–	19.26 ± 0.22
15.99 K	17.18 ± 0.2	–
16.42 K	–	21.23 ± 0.24
16.84 K	18.83 ± 0.21	–
17.37 K	–	23.19 ± 0.26
17.7 K	20.48 ± 0.23	–
18.32 K	–	25.15 ± 0.28
18.56 K	22.1 ± 0.25	–
19.27 K	–	27.09 ± 0.3
19.42 K	23.73 ± 0.26	–
20 K	24.83 ± 0.15	28.59 ± 0.17
20.22 K	–	29.03 ± 0.17
20.29 K	25.36 ± 0.15	–
21.48 K	–	31.59 ± 0.18
21.5 K	27.65 ± 0.16	–
23.05 K	–	34.73 ± 0.19
23.06 K	30.6 ± 0.17	–
24.62 K	33.53 ± 0.18	–
24.63 K	–	37.87 ± 0.2
25 K	34.2 ± 0.19	38.6 ± 0.2
26.19 K	36.35 ± 0.19	–
26.21 K	–	40.93 ± 0.21
27.59 K	38.83 ± 0.2	–
27.79 K	–	43.88 ± 0.22
29.09 K	41.41 ± 0.2	–
29.96 K	–	47.88 ± 0.23
30 K	42.93 ± 0.19	47.93 ± 0.22
30.68 K	44.04 ± 0.2	–
32.35 K	–	52.05 ± 0.23
32.43 K	46.84 ± 0.21	–
34.29 K	–	55.25 ± 0.25
34.33 K	49.79 ± 0.22	–
35 K	50.8 ± 0.23	56.37 ± 0.26
36.21 K	–	58.25 ± 0.26
36.25 K	52.67 ± 0.24	–
38.13 K	–	61.21 ± 0.27
38.16 K	55.41 ± 0.25	–
40 K	58.01 ± 0.26	64 ± 0.29
40.04 K	–	64.03 ± 0.28
40.07 K	58.07 ± 0.26	–
42.06 K	–	66.96 ± 0.3
42.08 K	60.84 ± 0.27	–
44.18 K	–	69.94 ± 0.31
44.19 K	63.71 ± 0.28	–
45 K	64.77 ± 0.29	71.05 ± 0.31
46.3 K	66.48 ± 0.29	72.87 ± 0.32
48.41 K	69.11 ± 0.3	–
48.42 K	–	75.66 ± 0.33
50 K	71.06 ± 0.31	77.66 ± 0.34
50.52 K	71.72 ± 0.32	–
50.54 K	–	78.37 ± 0.34
52.64 K	74.22 ± 0.33	–
52.66 K	–	80.96 ± 0.35
54.76 K	76.59 ± 0.34	–
54.78 K	–	83.48 ± 0.37
56.88 K	78.93 ± 0.35	–
56.91 K	–	85.88 ± 0.38
59.01 K	81.2 ± 0.36	–
59.04 K	–	88.27 ± 0.39
60 K	82.26 ± 0.36	89.36 ± 0.39
61.14 K	83.4 ± 0.36	–
61.17 K	–	90.59 ± 0.4
63.27 K	85.56 ± 0.37	–
63.31 K	–	92.93 ± 0.41
65.4 K	87.69 ± 0.38	–
65.45 K	–	95.14 ± 0.41
67.54 K	89.76 ± 0.39	–
67.59 K	–	97.4 ± 0.42
69.67 K	91.79 ± 0.4	–
69.73 K	–	99.56 ± 0.43
70 K	92.11 ± 0.4	99.8 ± 0.43
71.91 K	93.89 ± 0.41	–
71.97 K	–	101.8 ± 0.4
74.26 K	96.02 ± 0.42	–
74.32 K	–	104.1 ± 0.5
76.61 K	98.12 ± 0.43	–
76.67 K	–	106.3 ± 0.5
78.96 K	100.2 ± 0.4	–
79.03 K	–	108.5 ± 0.5
80 K	101 ± 0.4	109.4 ± 0.4
80.72 K	–	110.2 ± 0.5
80.99 K	102 ± 0.4	–
81.32 K	102.2 ± 0.4	–
81.39 K	–	110.6 ± 0.5
82.53 K	–	111.7 ± 0.5
82.87 K	103.5 ± 0.5	–
83.68 K	104.1 ± 0.5	–
83.75 K	–	112.7 ± 0.5
84.35 K	–	113.3 ± 0.5
84.75 K	105 ± 0.5	–
86.18 K	–	114.8 ± 0.5
86.65 K	106.5 ± 0.5	–
88.03 K	–	116.3 ± 0.5
88.56 K	108 ± 0.5	–
89.88 K	–	117.8 ± 0.5
90 K	109.2 ± 0.5	117.9 ± 0.6
90.48 K	109.5 ± 0.5	–
91.74 K	–	119.3 ± 0.5
92.41 K	110.9 ± 0.5	–
93.62 K	–	120.8 ± 0.5
94.34 K	112.5 ± 0.5	–
95.5 K	–	122.3 ± 0.5
96.29 K	113.9 ± 0.5	–
97.39 K	–	123.7 ± 0.5
98.25 K	115.3 ± 0.5	–
99.29 K	–	125.2 ± 0.6
100 K	116.6 ± 0.6	125.7 ± 0.6
100.21 K	116.7 ± 0.5	–
101.2 K	–	126.6 ± 0.6
102.18 K	118.2 ± 0.5	–
103.12 K	–	128 ± 0.6
104.16 K	119.5 ± 0.5	–
105.04 K	–	129.4 ± 0.6
106.14 K	120.9 ± 0.5	–
106.97 K	–	130.8 ± 0.6
107.31 K	121.7 ± 0.5	–
108.13 K	122.3 ± 0.5	–
108.91 K	–	132.2 ± 0.6
109.45 K	123.1 ± 0.5	–
110 K	123.5 ± 0.6	132.9 ± 0.6
110.13 K	123.6 ± 0.5	–
110.85 K	–	133.5 ± 0.6
111.45 K	124.4 ± 0.6	–
112.13 K	124.9 ± 0.6	–
112.8 K	–	134.9 ± 0.6
113.46 K	125.7 ± 0.6	–
114.14 K	126.3 ± 0.6	–
114.75 K	–	136.2 ± 0.6
115.47 K	127.1 ± 0.6	–
116.16 K	127.5 ± 0.6	–
116.71 K	–	137.6 ± 0.6
117.49 K	128.4 ± 0.6	–
118.17 K	128.8 ± 0.6	–
118.68 K	–	138.9 ± 0.6
119.51 K	129.7 ± 0.6	–
120 K	130 ± 0.6	139.8 ± 0.6
120.2 K	130.1 ± 0.6	–
120.64 K	–	140.2 ± 0.6
121.54 K	130.9 ± 0.6	–
122.22 K	131.4 ± 0.6	–
122.62 K	–	141.5 ± 0.6
123.57 K	132.2 ± 0.6	–
124.25 K	132.7 ± 0.6	–
124.59 K	–	142.8 ± 0.6
125.6 K	133.5 ± 0.6	–
126.29 K	133.9 ± 0.6	–
126.57 K	–	144.1 ± 0.6
127.64 K	134.7 ± 0.6	–
128.33 K	135.1 ± 0.6	–
128.55 K	–	145.4 ± 0.6
129.68 K	135.9 ± 0.6	–
130 K	136.1 ± 0.6	146.4 ± 0.7
130.37 K	136.4 ± 0.6	–
130.54 K	–	146.7 ± 0.6
131.72 K	137.2 ± 0.6	–
132.41 K	137.6 ± 0.6	–
132.53 K	–	148 ± 0.6
133.76 K	138.4 ± 0.6	–
134.46 K	138.8 ± 0.6	–
134.52 K	–	149.3 ± 0.6
135.81 K	139.6 ± 0.6	–
136.51 K	140.1 ± 0.6	150.6 ± 0.7
137.87 K	140.8 ± 0.6	–
138.51 K	–	151.8 ± 0.7
138.56 K	141.3 ± 0.6	–
139.92 K	142.1 ± 0.6	–
140 K	142.1 ± 0.6	152.8 ± 0.7
140.51 K	–	153.1 ± 0.7
140.62 K	142.5 ± 0.6	–
141.98 K	143.3 ± 0.6	–
142.51 K	–	154.4 ± 0.7
142.68 K	143.7 ± 0.6	–
144.04 K	144.5 ± 0.6	–
144.51 K	–	155.7 ± 0.7
144.74 K	144.9 ± 0.6	–
146.1 K	145.7 ± 0.6	–
146.51 K	–	157 ± 0.7
146.8 K	146.1 ± 0.6	–
148.16 K	146.9 ± 0.6	–
148.52 K	–	158.3 ± 0.7
148.86 K	147.3 ± 0.6	–
150 K	147.9 ± 0.7	159.3 ± 0.7
150.22 K	148.1 ± 0.6	–
150.52 K	–	159.6 ± 0.7
150.92 K	148.5 ± 0.6	–
152.28 K	149.3 ± 0.6	–
152.53 K	–	160.9 ± 0.7
152.98 K	149.7 ± 0.7	–
154.35 K	150.5 ± 0.7	–
154.54 K	–	162.2 ± 0.7
155.05 K	150.8 ± 0.7	–
156.41 K	151.6 ± 0.7	–
156.54 K	–	163.5 ± 0.7
157.11 K	152.1 ± 0.7	–
158.48 K	152.8 ± 0.7	–
158.55 K	–	164.8 ± 0.7
159.18 K	153.2 ± 0.7	–
160 K	153.7 ± 0.7	165.7 ± 0.7
160.54 K	154 ± 0.7	–
160.56 K	–	166.1 ± 0.7
161.24 K	154.4 ± 0.7	–
162.57 K	–	167.4 ± 0.7
162.61 K	155.2 ± 0.7	–
163.31 K	155.6 ± 0.7	–
164.58 K	–	168.7 ± 0.7
164.68 K	156.4 ± 0.7	–
165.38 K	156.8 ± 0.7	–
166.59 K	–	170 ± 0.7
166.74 K	157.5 ± 0.7	–
167.44 K	158 ± 0.7	–
168.59 K	–	171.4 ± 0.7
